The source of these data is patent publication US20200222347A1, “ANTIMICROBIALS AND METHODS OF USE THEREOF” (priority 2013, published 2020).

One test has as its system S. aureus 6538. The test can be described thus: Kirby-Bauer disc diffusion antimicrobial susceptibility. Type of test: cell-based. The following applies: 100 mM, carrier water; 18-24 hours for aerobes.
A further test deals with S. pyogenes. The description is as above. Type of test: cell-based. The following applies: 100 mM, carrier water.
Another test relates to all bacteria tested. The test can be described thus: In vitro antimicrobial susceptibility, whole panel. Type of test: cell-based.
A further test deals with S. aureus 33591 (MRSA). The test can be described thus: Kirby-Bauer disc diffusion antimicrobial susceptibility. Type of test: cell-based, Staphylococcus aureus. The following applies: 100 mM, carrier water; 18-24 hours for aerobes.
The test system of a further test is C. perfringens. Type of test: cell-based. The following applies: 100 mM, carrier water.
A further test deals with S. mutans. Put plainly: Kirby-Bauer disc diffusion antimicrobial susceptibility. Type of test: cell-based. The following applies: 100 mM, carrier water.
The subject of the next test is C difficile. Described as above. Type of test: cell-based. The following applies: 100 mM, carrier water; 48 hours for anaerobes.
For another test, the system named is P. aeruginosa. The test is described as above. Type of test: cell-based, Pseudomonas aeruginosa. The following applies: 100 mM, carrier water; 18-24 hours for aerobes.
The next test has as its system Legionella 43662. Type of test: cell-based.
Test [1] has as its system Staphylococcus epidermidis ATCC 51625 (MRSE). Put plainly: In vitro antimicrobial test (FIG. 32). Type of test: cell-based.
The test system of test [2] is Pseudomonas aeruginosa ATCC9027. Put plainly: Paper disc test with water or propylene glycol, Example 10.
For test [3], the system named is Aureobasidium pullulans, ATCC 15233. Put plainly: In vitro test of 2, 4, 6 Trihydroxybenzaldehyde against a fungi. Type of test: cell-based. The following applies: 100 mM.
Test [4] deals with E. coli, ATTC 8739 and ATCC 43895. The test can be described thus: Kirby-Bauer disc diffusion antimicrobial susceptibility. The following applies: 100 mM, carrier water; 18-24 hours for aerobes. Type of test: cell-based.
The subject of a further test is K. pneumoniae. Described as above. Type of test: cell-based. The following applies: 100 mM, carrier water; 18-24 hours for aerobes.
The test system of test [5] is Staphylococcus aureus ATCC33591 (MRSA). The test can be described thus: Paper disc test with water or propylene glycol, Example 10.

Values joined by “and” are separate entries in the source; they are usually repeats but may differ in a detail not shown here. Identical values can stand only once.

For the compound `Oc1cc(O)c2cc(O)c(-c3ccc(O)c(O)c3)[o+]c2c1.[Cl-]` [Cyanidin CI, cyanidin chloride], the “effectiveness against S. aureus 6538” value in the test on S. aureus 6538 was “effective”. Also, the “effectiveness against S. pyogenes” value in the test on S. pyogenes was “effective”. Moreover, the “antibiotic properties (summary)” value in the test with all bacteria tested is “limited antibiotic properties”. Besides, the “effectiveness against S. aureus 33591 (MRSA)” value with S. aureus 33591 (MRSA) is given as “effective”. In addition, the “effectiveness against C. perfringens (growth inhibition)” value with C. perfringens is “effective”. In addition, the “effectiveness against S. mutans” value in the test with S. mutans is on record as “effective”. The “effectiveness against C. difficile (growth inhibition)” value in the test on C difficile was “effective”.
As for `O=C(O)CNC(=O)c1ccccc1` [hippuric acid], in the test with all bacteria tested, the “antibiotic properties (summary)” value is on record as “little activity”.
Same read-out and setting: the same measure for `COc1cc(C(=O)O)ccc1O` [vanillic acid]: “little activity”.
For `CC1(C)S[C@@H]2[C@H](NC(=O)[C@H](N)c3ccc(O)cc3)C(=O)N2[C@H]1C(=O)O` [Amoxicillin, amoxicillin, reference compound], the “effectiveness against P. aeruginosa” value with P. aeruginosa is “no effect”.
Regarding `O=Cc1c(O)cc(O)cc1O` [2, 4, 6 Trihydroxybenzaldehyde, 2, 4, 6 trihydroxybenzaldehyde], in the test on S. aureus 6538, the “effectiveness against S. aureus 6538” value is on record as “effective”. Further, the “effectiveness against Legionella 43662” value in the test on Legionella 43662 is “effective”. Further, the “effectiveness against MRSE ATCC 51625” value in test [1] is reported as “effective”. The “antibiotic properties (summary)” value with all bacteria tested is “broad spectrum antibiotic”. Besides, the “inhibition of growth under the sample” value in test [2] (PPG), in [2] (Water), in [5] (PPG) and in test [5] (Water) was “I” throughout. Moreover, the zone of inhibition in test [2] (PPG) is 3 mm; in [2] (Water, listed as 246 THBA), 2 mm and 3 mm; in test [5] (PPG), 12 mm; in [5] (Water, listed as 246 THBA), 14 mm and 15 mm. Further, in [3], the “effectiveness against A. pullulans, a fungi” value was “effective”. Further, the “effectiveness against E. coli” value in test [4] was “effective”. Moreover, the “effectiveness against P. aeruginosa” value in the test with P. aeruginosa is given as “effective”. Further, the “effectiveness against K. pneumoniae” value with K. pneumoniae is on record as “effective”. For the same compound, the “effectiveness against S. aureus 33591 (MRSA)” value in the test on S. aureus 33591 (MRSA) is recorded as “effective”.
